According to PubChem BioAssay AID1117324 (Cheminformatics & Chemogenomics Research Group (CCRG), …, 2015):
Active and inactive are the calls of the source. The rule behind the calls is not given here. Where a SMILES comes first, the peptide text is derived from it. Bridges are numbered along the chain shown (N, C = ends). [ ]: non-standard residue; d: D form. hArg = N=C(N)NCCCC[C@H](N)C(=O)O; Mpa = O=C(O)CCS

Test system: VEGF-stimulated ADSC/ECFC co-culture, nuclear area imaging
Experiment: nuclear area loss in endothelial-stromal co-culture, dose response, cell-based, VEGF stimulation, IC50 (AID 1117324)

## O=C1C(I)=CC(=C(c2cc(I)c(O)c(I)c2)c2ccccc2C(=O)O)C=C1I
  IC50: > 10 µM (inactive)

## CC(=O)Oc1ccccc1C(=O)Nc1ncc([N+](=O)[O-])s1
  IC50: > 10 µM (inactive)

## Cc1cc(O)c2ccccc2c1O
  IC50: 9.85 µM (inactive)

## CCCCCCCCCCCCCCCCCCOP(=O)([O-])OC1CC[N+](C)(C)CC1
  IC50: > 10 µM (inactive)

## O=C(CBr)Nc1ccc(Cl)cc1C(=O)c1ccccc1F
  IC50: > 10 µM (inactive)

## Oc1c(Cl)cc(Cl)c2cccnc12
  IC50: > 10 µM (inactive)

## CCOc1ccc2nc3cc(N)ccc3c(N)c2c1
  IC50: > 10 µM (inactive)

## COc1ccc(/C=N/NC(=O)c2ccncc2)cc1OC
  IC50: > 10 µM (inactive)

## Cc1nc(Nc2ncc(C(=O)Nc3c(C)cccc3Cl)s2)cc(N2CCN(CCO)CC2)n1
  IC50: > 10 µM (inactive)

## C[n+]1cc2c3c(ccc2c2ccc4cc5c(cc4c21)OCO5)OCO3
  IC50: 0.97 µM

## Cc1onc(-c2c(Cl)cccc2Cl)c1C(=O)Cl
  IC50: > 10 µM (inactive)

## COCc1c(C(C)C)nc(C(C)C)c(/C=C/[C@@H](O)C[C@@H](O)CC(=O)O)c1-c1ccc(F)cc1
  IC50: 0.259 µM

## O=C(Nc1ccc(Cl)cc1)Nc1ccc(Cl)c(Cl)c1
  IC50: > 10 µM (inactive)

## Cc1ccc(O)cc1
  IC50: > 10 µM (inactive)

## NCCNc1ccc(NCCN)c2c1C(=O)c1ccncc1C2=O
  IC50: > 10 µM (inactive)

## c1ccc2c(c1)Sc1ccccc1N2CC1CN2CCC1CC2 (stereo not drawn)
  IC50: > 10 µM (inactive)

## Nc1ncn([C@@H]2O[C@H](CO)[C@@H](O)[C@H]2O)c(=O)n1
  IC50: > 10 µM (inactive)

## CN(C)CCCN1c2ccccc2Sc2ccc(Cl)cc21
  IC50: > 10 µM (inactive)

## O=C(c1ccc(F)cc1)C1CCN(CCn2c(=O)[nH]c3ccccc3c2=O)CC1
  IC50: > 10 µM (inactive)

## S=c1nc[nH]c2nc[nH]c12
  IC50: > 10 µM (inactive)

## CCN(CC)CCOc1ccc(C(O)(Cc2ccc(Cl)cc2)c2ccc(C)cc2)cc1 (stereo not drawn)
  IC50: 6.98 µM (inactive)

## Cc1ccc(Nc2c(F)cccc2Cl)c(CC(=O)O)c1
  IC50: > 10 µM (inactive)

## CN(Cc1cnc2nc(N)nc(N)c2n1)c1ccc(C(=O)N[C@@H](CCC(=O)O)C(=O)O)cc1
  IC50: > 10 µM (inactive)

## CC(CC=O)CCCC(C)(C)O (stereo not drawn)
  IC50: > 10 µM (inactive)

## CC1=C(/C=C/C(C)=C/C=C/C(C)=C/C(=O)Nc2ccc(O)cc2)C(C)(C)CCC1
  IC50: 6.24 µM (inactive)

## C[C@@H](NCCCc1cccc(C(F)(F)F)c1)c1cccc2ccccc12
  IC50: > 10 µM (inactive)

## COc1cccc(CCc2ccccc2OCC(CN(C)C)OC(=O)CCC(=O)O)c1 (stereo not drawn)
  IC50: > 10 µM (inactive)

## OCCN1CCN(CCCN2c3ccccc3Sc3ccc(Cl)cc32)CC1
  IC50: > 10 µM (inactive)

## COC(=O)c1nc(Cl)c(Cl)nc1N
  IC50: 6.8 µM (inactive)

## Cc1ccc(Nc2nccc(N(C)c3ccc4c(C)n(C)nc4c3)n2)cc1S(N)(=O)=O
  IC50: > 10 µM (inactive)

## CN(C)c1ccc(C(=C2C=CC(=[N+](C)C)C=C2)c2ccc(N(C)C)cc2)cc1
  IC50: 1.83 µM

## COc1ccccc1OCCNCC(O)COc1cccc2[nH]c3ccccc3c12 (stereo not drawn)
  IC50: > 10 µM (inactive)

## CC(C)=CCCC(C)=CCCC(C)=CCCC=C(C)CCC=C(C)CCC=C(C)C
  IC50: > 10 µM (inactive)

## CC1(C)[C@H](C=C(Cl)Cl)[C@@H]1C(=O)OCc1c(F)c(F)cc(F)c1F
  IC50: > 10 µM (inactive)

## O=C(O)C1CCC1
  IC50: > 10 µM (inactive)

## Cc1cccc(C)c1NC(=O)CC12CCCN1CCC2
  IC50: > 10 µM (inactive)

## CN1CCN(c2cc3c(nn2)Oc2ccccc2N3C)CC1
  IC50: > 10 µM (inactive)

## CCC=CCC=CCC=CCCCCCCCC(=O)O
  IC50: > 10 µM (inactive)

## Clc1ccc(COC(Cn2ccnc2)c2ccc(Cl)cc2Cl)cc1 (stereo not drawn)
  IC50: 9.93 µM (inactive)

## COC(=O)Nc1nc2ccc(C(=O)c3cccs3)cc2[nH]1
  IC50: > 10 µM (inactive)

## O=C(Nc1ccc(S(=O)(=O)N2CCOCC2)cc1)c1cc(Cl)ccc1NS(=O)(=O)c1ccc(Cl)s1
  IC50: > 10 µM (inactive)

## C[C@@H]1C[C@H]2[C@@H]3CCC4=CC(=O)C=C[C@]4(C)[C@@]3(Cl)[C@@H](O)C[C@]2(C)[C@@]1(OC(=O)c1ccco1)C(=O)CCl
  IC50: > 10 µM (inactive)

## CC(C)CCCC(C)NCCC(C)C (stereo not drawn)
  IC50: > 10 µM (inactive)

## COc1cc2nc(N3CCN(C(=O)C4COc5ccccc5O4)CC3)nc(N)c2cc1OC (stereo not drawn)
  IC50: > 10 µM (inactive)

## NC(=O)[C@@H]1CSSCCC(=O)N[C@@H](CCCCN=C(N)N)C(=O)NCC(=O)N[C@@H](CC(=O)O)C(=O)N[C@@H](Cc2c[nH]c3ccccc23)C(=O)N2CCC[C@H]2C(=O)N1 ([Mpa][hArg]GDWPC-NH2; disulfide 1-7)
  IC50: > 10 µM (inactive)

## O=[N+]([O-])c1cc(I)c(O)c(I)c1
  IC50: > 10 µM (inactive)

## OC[C@H]1O[C@@H](n2cnc3c(=S)nc[nH]c32)[C@H](O)[C@@H]1O
  IC50: > 10 µM (inactive)

## O=c1c(-c2ccccc2)c1-c1ccccc1
  IC50: 6.75 µM (inactive)

## CCCCCCCC[N+](C)(C)CCCCCCCC
  IC50: 7.43 µM (inactive)

## NC(=O)C1(N2CCCCC2)CCN(CCCN2c3ccccc3CCc3ccc(Cl)cc32)CC1
  IC50: > 10 µM (inactive)

## CC(C)(C)C1CCC(CC2=C(O)c3ccccc3C(=O)C2=O)CC1 (stereo not drawn)
  IC50: > 10 µM (inactive)

## CCOC(=O)C=C(C)C=CC[C@@H](C)CCCC(C)C
  IC50: > 10 µM (inactive)

## O=C(OCCO)c1ccccc1O
  IC50: > 10 µM (inactive)

## CCCCCN=C(N)N/N=C/c1c[nH]c2ccc(OC)cc12
  IC50: 7.17 µM (inactive)

## Cc1ccc(C(=O)Oc2ccc(C(O)CNC(C)(C)C)cc2OC(=O)c2ccc(C)cc2)cc1 (stereo not drawn)
  IC50: > 10 µM (inactive)

## O=C(N/N=C/c1ccccc1O)c1ccncc1
  IC50: > 10 µM (inactive)

## N/C(=N\N=C\c1ccc(Cl)cc1)N/N=C/c1ccc(Cl)cc1
  IC50: > 10 µM (inactive)

## CCCCCCCCCCOCC(O)CN (stereo not drawn)
  IC50: > 10 µM (inactive)

## COc1ccc(/C=C/C(=O)c2ccc(OC)cc2OC)cc1
  IC50: > 10 µM (inactive)

## CCCCc1oc2ccc(NS(C)(=O)=O)cc2c1C(=O)c1ccc(OCCCN(CCCC)CCCC)cc1
  IC50: 7.56 µM (inactive)

## CCCCCCCCCCCCCCCC[n+]1ccccc1
  IC50: 3.01 µM

## CN(C)C(=O)Oc1cccc([N+](C)(C)C)c1
  IC50: > 10 µM (inactive)

## Cc1cc(-c2ccc(N=Nc3c(S(=O)(=O)O)cc4cc(S(=O)(=O)O)cc(N)c4c3O)c(C)c2)ccc1N=Nc1c(S(=O)(=O)O)cc2cc(S(=O)(=O)O)cc(N)c2c1O
  IC50: > 10 µM (inactive)

## CN1CCN(CCCN2c3ccccc3Sc3ccc(C(F)(F)F)cc32)CC1
  IC50: > 10 µM (inactive)

## Clc1ccc(CSC(Cn2ccnc2)c2ccc(Cl)cc2Cl)cc1 (stereo not drawn)
  IC50: 8.76 µM (inactive)

## Cc1cc(C(C#N)c2ccc(Cl)cc2)c(Cl)cc1NC(=O)c1cc(I)cc(I)c1O (stereo not drawn)
  IC50: 7.36 µM (inactive)

## O=S(c1cc(Cl)cc(Cl)c1O)c1cc(Cl)cc(Cl)c1O
  IC50: > 10 µM (inactive)

## O=c1[nH]c(=O)n([C@H]2C[C@H](O)[C@@H](CO)O2)cc1I
  IC50: > 10 µM (inactive)

## COc1ccc(CCN2CCC(Nc3nc4ccccc4n3Cc3ccc(F)cc3)CC2)cc1
  IC50: > 10 µM (inactive)

## COC(=O)Nc1nc2ccc(S(=O)c3ccccc3)cc2[nH]1 (stereo not drawn)
  IC50: > 10 µM (inactive)

## CCc1oc2ccccc2c1C(=O)c1cc(Br)c(O)c(Br)c1
  IC50: > 10 µM (inactive)

## C[C@H](O)CN(C)C
  IC50: > 10 µM (inactive)

## Cc1ccc2c(Br)cc(Br)c(O)c2n1
  IC50: > 10 µM (inactive)

## O=c1[nH]c(=O)n([C@H]2C[C@H](O)[C@@H](CO)O2)cc1F
  IC50: > 10 µM (inactive)

## CC(=O)Oc1cccc2c1C(=O)c1c(OC(C)=O)cc(C(=O)O)cc1C2=O
  IC50: > 10 µM (inactive)

## CN(C)c1ccc2nc3ccc(=[N+](C)C)cc-3sc2c1
  IC50: > 10 µM (inactive)

## Oc1ccc(Cl)cc1Sc1cc(Cl)ccc1O
  IC50: 8.69 µM (inactive)

## CCCCCCC[N+](CC)(CC)CCCCc1ccc(Cl)cc1
  IC50: > 10 µM (inactive)

## CC(=O)N(O)CCCCCNC(=O)CCC(=O)N(O)CCCCCNC(=O)CCC(=O)N(O)CCCCCN
  IC50: > 10 µM (inactive)

## Oc1ccc2[nH]cc(CCCCN3CC=C(c4ccccc4)CC3)c2c1
  IC50: > 10 µM (inactive)

## C=C(C)[C@H]1Cc2c(ccc3c2O[C@@H]2COc4cc(OC)c(OC)cc4[C@@H]2C3=O)O1
  IC50: > 10 µM (inactive)

## Clc1ccc(C(Cn2ccnc2)OCc2ccc(Sc3ccccc3)cc2)c(Cl)c1 (stereo not drawn)
  IC50: > 10 µM (inactive)

## COc1ccc2cc1Oc1ccc(cc1)C[C@H]1c3c(cc4c(c3Oc3cc5c(cc3OC)CCN(C)[C@@H]5C2)OCO4)CCN1C
  IC50: > 10 µM (inactive)

## O=C(CCBr)N1CCN(C(=O)CCBr)CC1
  IC50: > 10 µM (inactive)

## COc1ccc2cc3[n+](cc2c1OC)CCc1cc2c(cc1-3)OCO2
  IC50: > 10 µM (inactive)

## N[C@@H](Cc1ccc(N(CCCl)CCCl)cc1)C(=O)O
  IC50: > 10 µM (inactive)

## CCOC(=O)C1=C[C@]2(CC)CCCN3CCc4c(n1c1ccccc41)[C@@H]32
  IC50: > 10 µM (inactive)

## CCOC(=O)[C@H](CCc1ccccc1)N[C@@H](C)C(=O)N1C(=O)N(C)C[C@H]1C(=O)O
  IC50: > 10 µM (inactive)

## CNS(=O)(=O)CCc1ccc2[nH]cc(C3CCN(C)CC3)c2c1
  IC50: > 10 µM (inactive)

## O=C(NC(=O)c1c(F)cccc1F)Nc1ccc(Cl)c(Oc2ncc(C(F)(F)F)cc2Cl)c1
  IC50: > 10 µM (inactive)

## COc1c(C)c2c(c(O)c1C/C=C(\C)CCC(=O)OCCN1CCOCC1)C(=O)OC2
  IC50: > 10 µM (inactive)

## O=C(CCCN1CCC(O)(c2cccc(C(F)(F)F)c2)CC1)c1ccc(F)cc1
  IC50: > 10 µM (inactive)

## Nc1nc(F)nc2c1ncn2[C@@H]1O[C@H](CO)[C@@H](O)[C@@H]1O
  IC50: > 10 µM (inactive)

## CN1CC[C@H](c2c(O)cc(O)c3c(=O)cc(-c4ccccc4Cl)oc23)[C@H](O)C1
  IC50: 0.328 µM

## CCCCC(=O)O[C@H]1CC[C@H]2[C@@H]3CCc4cc(O)ccc4[C@@H]3CC[C@]12C
  IC50: 8.3 µM (inactive)

## O=C(CCl)c1ccc(Cl)cc1Cl
  IC50: 6.17 µM (inactive)

## CC[C@@]1(O)C(=O)OCc2c1cc1n(c2=O)Cc2cc3c(CN(C)C)c(O)ccc3nc2-1
  IC50: 0.025 µM

## CS(=O)(=O)CCNCc1ccc(-c2ccc3ncnc(Nc4ccc(OCc5cccc(F)c5)c(Cl)c4)c3c2)o1
  IC50: > 10 µM (inactive)
